According to ChEMBL document CHEMBL1201862, “PubChem BioAssay data set” (2004):
Activity calls are given as the source filed them.

Tested on: not listed separately
Assay: NIH-3T3 fibroblast cytotoxicity, dose response, cytotoxicity control, cell-based, fluorescence, Alamar Blue, secondary assay (AID 2327);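 also: NIH-3T3 mouse fibroblasts cultured with fluconazole at 8 µg/mL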
Format: functional
Conditions: not given
With COc1cc(C(=O)NC(=S)N(CCc2ccccc2)CCc2ccccc2)cc(OC)c1OC the EC50 was 28.6 µM (active).

Tested on: not listed separately
Assay: HEp-2 cell cytotoxicity, dose response, cytotoxicity control for RSV inhibitor project, HTS (AID 2410)
Format: functional
Conditions: human respiratory syncytial virus
In the case of Nc1[nH]nc(C2CC2)c1N=Nc1ccc(Cl)c(Cl)c1, the CC50 is reported as 17.5 µM (active).

Tested on: not listed separately
Assay: inhibitors of firefly luciferase expression or activity, dose response, H4 neuroglioma cells, luminescence (AID 1990)
Format: functional, cell-based
Conditions: not given
For COc1cc(C(=O)NC(=S)N(CCc2ccccc2)CCc2ccccc2)cc(OC)c1OC, the EC50 was > 120 µM (not active).

Tested on: Streptococcus sp. 'group A'
Assay: growth inhibition of control SK(-) GAS strain, dose response, counter-screen for streptokinase expression inhibitor project, luminescence, kanamycin, BacTiterGlo, confirmation (AID 1900)
Format: functional, organism-based
Conditions: not given
For COc1cc(C(=O)NC(=S)N(CCc2ccccc2)CCc2ccccc2)cc(OC)c1OC, the EC50 was 0.525 µM (active). For Nc1[nH]nc(C2CC2)c1N=Nc1ccc(Cl)c(Cl)c1, the EC50 was 4.36 µM (active). With COc1cccc(C(=O)N2C(C(=O)O)CSC2c2ccccc2Cl)c1 (stereo unspecified) the EC50 was > 150 µM (not active).

Tested on: not listed separately
Assay: Luminescence Cell-Based Dose Response HTS to Identify Inhibitors of 5'UTR Stem-Loop Driven Prion Protein mRNA Translation in H4 Neuroglioblastoma Cells. [Related pubchem assays: 1827 (Project Summary), 1813 (Primary HTS)]
Format: functional
Conditions: not given
With COc1cc(C(=O)NC(=S)N(CCc2ccccc2)CCc2ccccc2)cc(OC)c1OC the EC50 was 12.2 µM (active).

Tested on: not listed separately
Assay: inhibitors of SNCA 5'UTR-driven reporter translation, confirmation, H4 neuroglioma cells, luminescence (AID 1988)
Format: functional, cell-based
Conditions: not given
With COc1cc(C(=O)NC(=S)N(CCc2ccccc2)CCc2ccccc2)cc(OC)c1OC the EC50 was 10.6 µM (active).

Biological target: T1, Streptokinase A (Streptococcus pyogenes serotype M1, UniProt P10520)
T1 sequence (P10520 whole entry): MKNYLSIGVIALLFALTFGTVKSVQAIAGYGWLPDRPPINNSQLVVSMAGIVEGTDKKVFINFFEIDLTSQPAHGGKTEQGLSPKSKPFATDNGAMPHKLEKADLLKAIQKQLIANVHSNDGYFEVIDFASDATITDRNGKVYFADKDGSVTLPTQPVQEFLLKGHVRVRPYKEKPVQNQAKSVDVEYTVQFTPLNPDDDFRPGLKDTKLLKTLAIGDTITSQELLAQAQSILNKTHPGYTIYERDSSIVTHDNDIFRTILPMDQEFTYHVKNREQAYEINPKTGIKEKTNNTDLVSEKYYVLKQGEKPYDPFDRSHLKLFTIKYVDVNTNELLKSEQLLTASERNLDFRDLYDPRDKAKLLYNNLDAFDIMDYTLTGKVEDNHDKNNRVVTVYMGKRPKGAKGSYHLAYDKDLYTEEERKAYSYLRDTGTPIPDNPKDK
Assay: S. pyogenes streptokinase expression inhibitors, potency, dose response, plasminogen activation absorbance, OD405 (AID 1914);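 also: secreted streptokinase activity via plasminogen activation per viability signal from cell pellet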
Format: functional, Streptococcus pyogenes M1 GAS
Conditions: not given
For COc1cc(C(=O)NC(=S)N(CCc2ccccc2)CCc2ccccc2)cc(OC)c1OC, the EC50 was > 150 µM (not active). With Nc1[nH]nc(C2CC2)c1N=Nc1ccc(Cl)c(Cl)c1 the EC50 was 17 µM (active). With COc1cccc(C(=O)N2C(C(=O)O)CSC2c2ccccc2Cl)c1 (stereo unspecified) the EC50 was > 150 µM (not active).

Tested on: not listed separately
Assay: C. albicans growth with fluconazole, confirmation, fluorescence, retest (AID 2467)
Format: functional, cell-based
Conditions: not given
For COc1cc(C(=O)NC(=S)N(CCc2ccccc2)CCc2ccccc2)cc(OC)c1OC, the EC50 was 4.2 µM (active).

Tested on: not listed separately
Assay: growth suppression of PTEN-null colon cells, dose response, cell-based, HCT116 PTEN knockout (AID 1047);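 also: HCT116 colon tumor cells with PTEN knocked out; cells exposed to compound for 60 hours before readout; potency for loss of cell viability measured by luminescence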
Format: functional
Conditions: not given
In the case of CCc1nn2cc(C(=O)c3cc(Cl)ccc3O)cnc2c1-c1ccc(F)cc1, the EC50 is reported as 30.7 µM (active). For CCOc1ccc(-n2c(=O)c3c4c(sc3n(CC(=O)NCc3ccco3)c2=O)CCC4)cc1, the EC50 was 30.2 µM (active). With COc1ccc(N2C(=O)/C(=C\NNS(=O)(=O)c3ccc(C)cc3)c3ccccc3C2=O)cc1OC the EC50 was 40.4 µM (active). With CC1=C(C(=O)Nc2ccccc2C)C(c2ccc(C)o2)n2c(s/c(=C/c3ccccc3)c2=O)=N1 (stereo unspecified) the EC50 was 347 µM (active). With CN(C)c1ccc(/C=N/c2ccc(N(C)C)cc2)cc1 the EC50 was 28.5 µM (active).

Tested on: not listed separately
Assay: growth suppression of beta-catenin-knockout colon cells, dose response, cell-based, HCT116, human colon tumor (AID 1045);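 also: HCT116 colon tumor cells with beta catenin knocked out; cells exposed to compound for 60 hours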
Format: functional
Conditions: not given
In the case of CCc1nn2cc(C(=O)c3cc(Cl)ccc3O)cnc2c1-c1ccc(F)cc1, the EC50 is reported as 28.3 µM (active). For CCOc1ccc(-n2c(=O)c3c4c(sc3n(CC(=O)NCc3ccco3)c2=O)CCC4)cc1, the EC50 was 27.7 µM (active). For CC1=C(C(=O)Nc2ccccc2C)C(c2ccc(C)o2)n2c(s/c(=C/c3ccccc3)c2=O)=N1 (stereo unspecified), the EC50 was 442 µM (active). In the case of CN(C)c1ccc(/C=N/c2ccc(N(C)C)cc2)cc1, the EC50 is reported as 524 µM (active).

Tested on: Streptococcus
Assay: Group A Streptococcus viability loss, dose response, counter-screen for streptokinase expression inhibitor project, luminescence, BacTiterGlo (AID 1915);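 also: potency for reduction of bacterial viability or growth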
Format: functional, organism-based
Conditions: not given
With COc1cc(C(=O)NC(=S)N(CCc2ccccc2)CCc2ccccc2)cc(OC)c1OC the EC50 was 17.9 µM (active). In the case of Nc1[nH]nc(C2CC2)c1N=Nc1ccc(Cl)c(Cl)c1, the EC50 is reported as > 150 µM (not active). In the case of COc1cccc(C(=O)N2C(C(=O)O)CSC2c2ccccc2Cl)c1 (stereo unspecified), the EC50 is reported as > 150 µM (not active).

Tested on: not listed separately
Assay: cells
Format: functional
Conditions: not given
For Cc1ccc(/C=C2\SC(N3CCCC3)=NC2=O)cc1, the IC50 was 5.13 µM (active). With O=C(OCc1c(Cl)cccc1Cl)c1ccccn1 the IC50 was 10.6 µM (active). For O=C(CC1CCCC1)OCn1nnc2ccccc2c1=O, the IC50 was 11.1 µM (active). In the case of COc1cccc(OC(=O)c2cc3ccccc3oc2=O)c1, the IC50 is reported as > 50 µM (active). For CCOC(=O)CN(C#N)c1nc(N(C)C)nc(N(C)C)n1, the IC50 was 26.9 µM (active). For CN(C(=O)COC(=O)c1ccc([N+](=O)[O-])cc1Cl)C1CCCCC1, the IC50 was 6.26 µM (active). For CC(C)C(=O)Nc1cccc(-c2nc3ccccc3c(=O)o2)c1, the IC50 was 20.7 µM (active). In the case of O=[N+]([O-])c1ccc(CN2CCN(c3ccccc3)CC2)o1, the IC50 is reported as 0.13 µM (active). For O=C(COc1ccccc1)NCCSCc1ccc(Cl)cc1, the IC50 was 22.2 µM (active). In the case of O=C(COC(=O)c1cc(Br)ccc1Cl)NC1CCCC1, the IC50 is reported as 18.2 µM (active). With CC(C)(C)C(=O)/C=C/Nc1ccccc1O the IC50 was 3.27 µM (active).

Biological target: T2, Corticotropin-releasing factor receptor 2/Corticotropin-releasing factor-binding protein (Homo sapiens, UniProt P24387+Q13324)
T2 sequence (Q13324 whole entry): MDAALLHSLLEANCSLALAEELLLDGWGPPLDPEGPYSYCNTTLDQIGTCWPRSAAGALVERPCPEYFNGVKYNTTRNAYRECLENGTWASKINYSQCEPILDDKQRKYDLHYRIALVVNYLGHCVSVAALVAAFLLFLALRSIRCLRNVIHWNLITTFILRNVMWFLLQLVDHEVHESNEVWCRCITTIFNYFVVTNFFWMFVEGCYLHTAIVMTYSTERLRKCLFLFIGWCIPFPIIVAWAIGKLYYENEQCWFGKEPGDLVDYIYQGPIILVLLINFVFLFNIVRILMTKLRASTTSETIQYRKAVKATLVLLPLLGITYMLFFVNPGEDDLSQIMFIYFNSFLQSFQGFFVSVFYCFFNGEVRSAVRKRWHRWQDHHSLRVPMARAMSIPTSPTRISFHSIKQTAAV
T2 sequence (P24387 whole entry): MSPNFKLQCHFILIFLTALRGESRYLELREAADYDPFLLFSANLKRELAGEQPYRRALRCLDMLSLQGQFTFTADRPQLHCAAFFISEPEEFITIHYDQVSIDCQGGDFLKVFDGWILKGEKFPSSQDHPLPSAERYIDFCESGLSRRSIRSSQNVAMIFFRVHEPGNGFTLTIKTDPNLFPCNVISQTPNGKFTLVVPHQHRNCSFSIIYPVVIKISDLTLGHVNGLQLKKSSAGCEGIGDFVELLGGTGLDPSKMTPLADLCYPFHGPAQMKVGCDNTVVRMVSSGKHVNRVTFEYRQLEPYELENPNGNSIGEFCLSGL
Assay: activators of CRF receptor 2 with binding protein – uHTS hits, confirmation (AID 602473)
Format: functional
Conditions: read-out: EC50_Mean
With COc1ccc(N2C(=O)/C(=C\NNS(=O)(=O)c3ccc(C)cc3)c3ccccc3C2=O)cc1OC the EC50 was > 53 µM (inactive).
